According to article PMC7126595 (Bioorganic & Medicinal Chemistry, 2018):

How the values were obtained:
Type in all cases: cell-based
[1] = tested on: varicella-zoster virus (VZV TK+); test: microbe, parasite or virus in culture; details: Human alphaherpesvirus 3, HEL, read-out: EC50 (HEL cells) VZV TK+
[2] = tested on: human cytomegalovirus (HCMV Davis strain); test: Antiviral activity against HCMV Davis in HEL cells; details: Human betaherpesvirus 5, HEL, read-out: EC50 (HEL cells) HCMV Davis
yellow fever virus (YFV) = test: microbe, parasite or virus in culture; details: Vero, read-out: EC50 (Vero cells) YFV
Sindbis Virus (SINV) = test: Antiviral activity against Sindbis virus in Vero cells; details: read-out: EC50 (Vero cells) SINV, Vero cells, viral induced cytopathic effect

SMILES: O=c1[nH]c(=O)n([C@H]2C[C@H](O)[C@@H](CO)O2)cc1/C=C/Br [Brivudin]
- EC50 [1]: 0.012 µM

SMILES: Nc1ccn(C[C@@H](CO)OCP(=O)(O)O)c(=O)n1 [Cidofovir]
- EC50 [2]: 0.76 µM

SMILES: C/C(=C\CP(=O)(N[C@@H](C)C(=O)OC(C)C)Oc1cccc2ccccc12)Cn1cc(C)c(=O)[nH]c1=O (stereo partly drawn) [E-8a, (E)-N^1-(4′-O-(1-Naphthyl)-(isopropyloxy-L-alanine)-phosphinyl-2′-methyl-but-2′-enyl)thymine]
- EC50 [1]: 44.7 µM

SMILES: COc1c(C)c2c(c(O)c1C/C=C(\C)CCC(=O)O)C(=O)OC2 [Mycophenolic acid]
- EC50 (yellow fever virus (YFV)): 4 µM
- EC50 (Sindbis Virus (SINV)): 4 µM
